Reference: the supplement of paper PMC13380429

Experiments:
Conditions in all cases: 72 h
[1] = system: Caco-2; assay: cell viability relative to DMSO; higher = less toxic
[2] = system: Calu-3; assay: as above
[3] = system: HepG2; assay: as above
[4] = system: U2OS; assay: as above
[5] = system: Vero E6; assay: as above
[6] = system: Caco-2; assay: relative viability EC50 (midpoint between 100% and the lowest measured viability); higher = less toxic
[7] = system: Calu-3; assay: as above
[8] = system: HepG2; assay: as above
[9] = system: U2OS; assay: as above
[10] = system: Vero E6; assay: as above
[11] = system: Caco-2; assay: drug sensitivity score (DSS) for viability; higher = more toxic; extreme values may be limits of the assay
[12] = system: Calu-3; assay: as above
[13] = system: HepG2; assay: as above
[14] = system: U2OS; assay: as above
[15] = system: Vero E6; assay: as above

Compound | cell viability ([1]; 1 nM) [%] | cell viability ([1]; 10 nM) [%] | cell viability ([1]; 100 nM) [%] | cell viability ([1]; 1000 nM) [%] | cell viability ([1]; 10000 nM) [%] | cell viability ([2]; 1 nM) [%] | cell viability ([2]; 10 nM) [%] | cell viability ([2]; 100 nM) [%] | cell viability ([2]; 1000 nM) [%] | cell viability ([2]; 10000 nM) [%] | cell viability ([3]; 1 nM) [%] | cell viability ([3]; 10 nM) [%] | cell viability ([3]; 100 nM) [%] | cell viability ([3]; 1000 nM) [%] | cell viability ([3]; 10000 nM) [%] | cell viability ([4]; 1 nM) [%] | cell viability ([4]; 10 nM) [%] | cell viability ([4]; 100 nM) [%] | cell viability ([4]; 1000 nM) [%] | cell viability ([4]; 10000 nM) [%] | cell viability ([5]; 1 nM) [%] | cell viability ([5]; 10 nM) [%] | cell viability ([5]; 100 nM) [%] | cell viability ([5]; 1000 nM) [%] | cell viability ([5]; 10000 nM) [%] | relative viability EC50 [6] [µM] | relative viability EC50 [7] [µM] | relative viability EC50 [8] [µM] | relative viability EC50 [9] [µM] | relative viability EC50 [10] [µM] | drug sensitivity score [11] | drug sensitivity score [12] | drug sensitivity score [13] | drug sensitivity score [14] | drug sensitivity score [15]
C[C@@H]([C@H](O)c1ccc(O)cc1)N1CCC(Cc2ccccc2)CC1 (racemic) [ifenprodil] | 96.8 | 101 | 96.1 | 98 | 89.8 | 99.4 | 96.5 | 92 | 91.8 | 84.1 | 103 | 99.5 | 104 | 92.8 | 88.2 | 103 | 101 | 99.9 | 102 | 98.5 | 101 | 103 | 102 | 98.8 | 97.6 | > 10 | > 10 | > 10 | > 10 | > 10 | 0 | 0.6 | 0.3 | 0 | 0
Cn1cc(-c2ccc(S(=O)(=O)n3ccc(/C=C/C(=O)Nc4ccccc4N)c3)cc2)cn1 [4SC-202] | 85.2 | 96.9 | 102 | 73.4 | 42 | 91.7 | 86 | 78.7 | 45.9 | 23.8 | 88.5 | 102 | 92.7 | 52.4 | 25.8 | 95.8 | 96.6 | 102 | 72.5 | 13.3 | 96.7 | 104 | 91 | 69.9 | 30.8 | 1.07 | 0.26 | 0.623 | 1.36 | 1.12 | 6.6 | 13.3 | 10.1 | 8.8 | 7.2
COc1cc2c(CCNC(C)=O)c[nH]c2cc1Cl [6-chloromelatonin] | 96 | 98.3 | 92.7 | 98.1 | 91 | 99.5 | 96.5 | 98.9 | 105 | 98.3 | 107 | 97.2 | 94.7 | 90.5 | 98.9 | 100 | 101 | 101 | 101 | 99.3 | 97.8 | 93.8 | 96.2 | 89.9 | 102 | > 10 | > 10 | > 10 | > 10 | > 10 | 0 | 0 | 0 | 0 | 0
CCC(=O)NC1CCc2cccc(OC)c2C1 (stereo not given) [8-M-PDOT] | 100 | 99.5 | 99.3 | 98.7 | 119 | 109 | 112 | 102 | 97.6 | 112 | 100 | 94.6 | 101 | 99.1 | 102 | 104 | 97.9 | 103 | 101 | 109 | 99.6 | 106 | 98.5 | 103 | 106 | > 10 | > 10 | > 10 | > 10 | > 10 | 0 | 0 | 0 | 0 | 0
Nc1ncnc2c1ncn2[C@@H]1O[C@H](COP(=O)(O)OP(=O)(O)OP(=O)(O)O)[C@@H](O)[C@H]1O [ADENOSINE TRIPHOSPHATE DISODIUM] | 95.3 | 103 | 99.5 | 97.1 | 105 | 97 | 96.6 | 104 | 95.3 | 110 | 101 | 100 | 106 | 93.2 | 98.4 | 93.8 | 97.9 | 93.3 | 101 | 110 | 91.9 | 90.5 | 90.6 | 90.2 | 106 | > 10 | > 10 | > 10 | > 10 | > 10 | 0 | 0 | 0 | 0 | 0
C=CC(=O)Nc1ccc2ncnc(Nc3ccc(OCc4cccc(F)c4)c(Cl)c3)c2c1 [AST-1306] | 93.4 | 105 | 83.3 | 80.6 | 6.1 | 98.9 | 80.4 | 40.4 | 32.3 | 4.3 | 102 | 96.7 | 107 | 92.8 | 48.2 | 91.4 | 72.7 | 91.5 | 61.3 | 23.4 | 99.8 | 97 | 83.7 | 51.8 | 17.7 | 1.72 | 0.0782 | 2.06 | 0.665 | 0.575 | 8.3 | 22.6 | 4 | 9.8 | 11.3
COc1c(C)cnc(Cn2cnc3c(Cl)nc(N)nc32)c1C [BIIB021] | 91 | 101 | 92.8 | 65.8 | 39.5 | 102 | 109 | 105 | 49.4 | 39.4 | 94 | 100 | 60.8 | 1.5 | 0.6 | 99.4 | 99.4 | 93.3 | 27.7 | 4.4 | 101 | 104 | 103 | 51.8 | 36.7 | 0.746 | 0.538 | 0.12 | 0.495 | 0.633 | 7.5 | 9.3 | 23.1 | 14.5 | 9.1
O=C(O)c1ccc(-c2ccc3cc(O)c(C45CC6CC(CC(C6)C4)C5)cc3c2)cc1 [CD-1530] | 90.9 | 98.9 | 94.9 | 84.4 | 88 | 95.9 | 99.6 | 98.8 | 98.5 | 88 | 108 | 102 | 97.4 | 124 | 106 | 98.2 | 96 | 97.7 | 93 | 86.2 | 93.4 | 103 | 95.8 | 106 | 103 | > 10 | > 10 | > 10 | > 10 | > 10 | 0.4 | 0.1 | 0 | 0.1 | 0
N#Cc1cccc(C(=O)Nc2cc(-c3ccccc3)nn2-c2ccccc2)c1 [CDPPB] | 93.3 | 100 | 108 | 95.4 | 102 | 101 | 95 | 101 | 97.2 | 100 | 106 | 103 | 97.8 | 107 | 104 | 92.8 | 97 | 97.1 | 93.9 | 91.6 | 98.5 | 96.2 | 98.6 | 99.2 | 103 | > 10 | > 10 | > 10 | > 10 | > 10 | 0 | 0 | 0 | 0 | 0
CCN(CC)CCOc1ccc(Cc2ccccc2)cc1 [DPPE] | 100 | 101 | 96.7 | 105 | 84.6 | 96 | 89.7 | 100 | 101 | 96.6 | 112 | 98.4 | 107 | 91.2 | 94.4 | 98.8 | 104 | 100 | 104 | 96.5 | 108 | 103 | 107 | 103 | 96 | > 10 | > 10 | > 10 | > 10 | > 10 | 0.1 | 0 | 0 | 0 | 0
Cc1ccc(=O)n(-c2ccc(O)cc2)c1 [F351] | 92.1 | 92.6 | 96.7 | 100 | 93 | 90.2 | 105 | 96.9 | 85.2 | 97.4 | 105 | 93.1 | 108 | 101 | 96.9 | 99.2 | 97.3 | 97.2 | 100 | 97.4 | 98.1 | 100 | 94.4 | 99.1 | 95.4 | > 10 | > 10 | > 10 | > 10 | > 10 | 0 | 0 | 0 | 0 | 0
C[C@@H]1O[C@@H]1P(=O)(O)O [FOSFOMYCIN CALCIUM] | 97.3 | 94.5 | 94.4 | 94.1 | 101 | 100 | 104 | 97.7 | 97.5 | 94.9 | 97.6 | 101 | 94.8 | 111 | 97.3 | 103 | 97.9 | 103 | 98.8 | 102 | 105 | 101 | 98.7 | 99.2 | 100 | > 10 | > 10 | > 10 | > 10 | > 10 | 0 | 0 | 0 | 0 | 0
N#CN=C(NCCCCCCOc1ccc(Cl)cc1)Nc1ccncc1 [GMX1778] | 104 | 102 | 3.2 | 3.5 | 3.2 | 104 | 102 | 7.1 | 4.8 | 3.9 | 109 | 26 | 19.5 | 16.3 | 8.4 | 102 | 110 | 0.1 | -0.3 | -0.5 | 98.3 | 99 | 101 | 1.7 | 1.2 | 0.0332 | 0.0356 | 0.0058 | 0.0363 | 0.326 | 29.3 | 28.8 | 36.6 | 29.7 | 17.6
CC=C1C(=O)C[C@H]2[C@@H]3CCC4=CC(=O)CC[C@]4(C)[C@H]3CC[C@]12C [GR-235] | 95.6 | 96.2 | 99.5 | 90.3 | 83.4 | 110 | 89.9 | 100 | 99.8 | 114 | 85.2 | 93.1 | 95.4 | 101 | 91 | 100 | 98.4 | 102 | 98.2 | 99.1 | 110 | 108 | 97.8 | 104 | 111 | > 10 | > 10 | > 10 | > 10 | > 10 | 1 | 0 | 0 | 0 | 0
